Numbered stars: 1 amine (or outer) side, 2 acyl side, 3 side chain; on linkers, the order of the positions; unused ones are H or OH. Bridge positions count the residues as written; N and C are the ends. Square brackets hold non-standard residues; d marks the D form. Peptide text beside a SMILES is read from it. * marks the point of attachment. ξ: configuration not given here. Asp(3S-OH) = N[C@H](C(=O)O)[C@H](O)C(=O)O; Thr(4-Cl) = N[C@H](C(=O)O)[C@H](O)CCl; ξAsp(3ξ-OH) = NC(C(=O)O)C(O)C(=O)O; X3 = O=C(C(N[*:1])C(O)CCl)[*:2]; X1 = CCCCCCCCC[C@@H](O)CC(=O)*; X2 = CCCCCCCCCCCC(O)CC(=O)*; dDab = NCC[C@@H](N)C(=O)O; Dab = NCC[CH](N)C(=O)O; Orn = NCCC[CH](N)C(=O)O; hSer = N[CH](CCO)C(=O)O; Dhb = C/C=C(\N)C(=O)O
Tests used:
[1] = system: monoclonal antibody to CD3 (anti-CD3)-induced lymphocyte proliferation; test: anti-CD3-induced lymphocyte proliferation ([3H]-thymidine incorporation); assay type: cell-based, human
Description: (§1) Lipodepsipeptide for Immunosuppression Experiments: SR-E was purified as previously described in Bidwai, A. P., Bachmann, R. C. and Takemoto, J. Y., "Mechanism of action of Pseudomonas syringae phytotoxin syringomycin". Plant Physiol. 83:39-43 (1987). A stock solution (10 mg per ml) was prepared in RPMI1640 culture media, aliquoted and stored frozen at -20°.
(§2) Lymphocyte stimulation: Lymphocyte stimulation was performed with three different mitogens: phytohemagglutinin (PHA), pokeweed mitogen (PWM), and monoclonal antibody to CD3 (anti-CD3). […]
(§3) Mitogen-induced lymphocyte proliferation: Peripheral blood mononuclear cells (MNC) (containing lymphocytes and monocytes) were separated by Ficoll-Hypaque density-gradient centrifugation using techniques well known in the art. Mitogen-induced lymphocyte proliferation was determined as previously described in Singh, V. K., "Stimulatory effect of corticotropin-releasing neurohormone on human lymphocyte proliferation and interleukin-2 receptor expression". […]
(§4) [^3 H]-thymadine Incorporation: Cells were pulse-labeled for 4 hours with 0.5 μCi/well of [^3 H]methyl-thymidine (spec. act.=25 Ci/mmol from Amersham Intl.). […] To each vial, 2 ml of CytoScint fluid (ICN Biomedicals) was dispensed and the radioactivity determined using a liquid scintillation counter (Tri-Carb, Packard). […]

[2] = system: phytohemagglutinin (PHA)-induced lymphocyte proliferation; test: PHA-induced lymphocyte proliferation ([3H]-thymidine incorporation); assay type: cell-based, human
Description: as §1, §2, §3, §4

[3] = system: lymphocytes (peripheral blood mononuclear cells); test: Lymphocyte proliferation in the absence of mitogens ([3H]-thymidine incorporation); assay type: cell-based, human; settings: SR-E at concentrations of 5.72 μM and lower; FIG. 3
Description: as §1
as §3, with “expression". J.Neuroimmunol.23.257-262 (1989). Briefly, MNC were cultured in triplicate in 96-well microtiter plates (Corning, Inc.).” for “expression".”
[^3 H]-thymadine Incorporation: Cells were pulse-labeled for 4 hours with 0.5 μCi/well of [^3 H]methyl-thymidine (spec. act.=25 Ci/mmol from Amersham Intl.). […] To each vial, 2 ml of CytoScint fluid (ICN Biomedicals) was dispensed and the radioactivity determined using a liquid scintillation counter (Tri-Carb, Packard). The rate of [^3 H]-thymidine incorporation by MNC was calculated as counts per minute per 10 ^5 cells.

[4] = system: clinical isolates (fungi); test: Broth microdilution MIC, fungal isolates overall; assay type: cell-based; settings: summary range over the fungi tested
Text: Most of the fungal strains used in the tests were clinical isolates obtained from the University of Texas Health Science Center at San Antonio Fungus Testing Laboratory (San Antonio, Tex.) and the remaining isolates were ATCC strains.
(§5) Medium: Liquid RPMI 1640 (RPMI) medium with L-glutamine and without sodium bicarbonate (Sigma Chemical Co., R-6504; St. Louis, Mo.) buffered with 0.165M MOPS (34.54 g/liter) was used for in vitro antifungal tests. The medium was adjusted to pH 7.0 with 10M NaOH and filter sterilized.
Lipodepsipeptide Dilutions: All stock drug solution concentrations were at least 10-fold higher than the highest concentration tested. […]
Preparation of Inoculum Suspensions: On Sabouraud dextose agar (SDA; BBL, Becton and Dickinson and Co., Cockeysville, Md.) all isolates were subcultured at least twice before use to ensure purity and viability. […] The turbidity of each mixed suspension was measured at 530 nm and adjusted to 1×10^6 to 5×10^6 CFU/ml by the NCCLS spectrophotometric method described by National Committee for Clinical Laboratory Standards. […]
Aspergillus fumigatus and Mucor spp. were grown for 1 wk at 35° C. […] The stock suspensions of all filamentous fungi were measured at 530 nm and adjusted to 85-87% transmission. The concentration (1×10^6 to 5×10^6 CFU/ml) was determined by hemacytometer count or plate count on SDA. […]

Mucor spp. = test: Broth microdilution MIC; assay type: cell-based; settings: Table 1 (MICs), 5 isolates, 48 hr
Description: as §5
Lipodepsipeptide Dilutions: All stock drug solution concentrations were at least 10-fold higher than the highest concentration tested. AmB, ketoconazole, and the test compounds (SR-E, ST-B, and SS-A) were dissolved in sterile distilled water, 0.2N HCl, and 0.001N HCl, respectively. Each stock solution was diluted to 2× the highest concentration of drug tested with RPMI. Two-fold dilutions were made with RPMI medium.
Preparation of Inoculum Suspensions: On Sabouraud dextose agar (SDA; BBL, Becton and Dickinson and Co., Cockeysville, Md.) all isolates were subcultured at least twice before use to ensure purity and viability. Candida spp. and Saccharomyces cerevisiae were grown for 24 hr at 35° C. Isolates of Cryptococcus neoformans were grown for 48 hr at 35° C. Yeast cells from at least five 1-mm-diameter colonies were suspended in 5 ml of sterile 0.85% saline. The resulting suspension was vortexed for 15 sec. The turbidity of each mixed suspension was measured at 530 nm and adjusted to 1×10^6 to 5×10^6 CFU/ml by the NCCLS spectrophotometric method described by National Committee for Clinical Laboratory Standards. 1992. Reference method for broth dilution antifungal susceptibility testing of yeasts; proposed standard, NCCLS document M27-P (ISBN 1-56238-186-5). NCCLS, Villanova. The final transmission of each yeast suspension ranged from 85-87%.
Aspergillus fumigatus and Mucor spp. were grown for 1 wk at 35° C. The dermatophytes, Microsporum spp. and Trichophyton spp., were grown for two wk at 30° C. Fungal spores were washed from the plates of all good spore formers (A. fumigatus, Mucor spp., Microsporum canis and Trichophyton spp.) by placing 5 ml of 0.85% saline with 0.2% Tween 80 on the plates and mixing with an inoculating loop. The spore/mycelium suspension was drawn off with a pipette and allowed to settle for at least 5 min. For the poor spore-forming Microsporum audouinii, the procedure was the same except the spore/mycelial suspension was homogenized with a ground glass tissue homogenizer and then allowed to settle for at least 5 min. A small amount of the supernatant was transferred to 5 ml of sterile saline and vortexed. The stock suspensions of all filamentous fungi were measured at 530 nm and adjusted to 85-87% transmission. The concentration (1×10^6 to 5×10^6 CFU/ml) was determined by hemacytometer count or plate count on SDA. All stock suspensions were diluted 1000-fold with RPMI, or 2× the final desired test inocula. The 2× inoculum was diluted 1:1 when the wells were inoculated, and the desired inoculum size was achieved.
Broth Microdilution Test: Broth microdilution tests were performed using sterile, disposable, multiwell microdilution plates (96 round U-bottom wells) (Falcon 3077; Becton and Dickinson Labware, Lincoln Park, N.J.). The drugs (2× concentrations) were dispensed into the wells of rows number 1 to 10 of the microdilution plates in 100 μl volumes from highest drug concentration to lowest drug concentration. Each well was inoculated with 100 μl of the corresponding 2× concentrated fungal suspension. The wells of row 11 contained the inoculum with drug-free media as a positive growth control and the wells of row 12 contained uninoculated-drug-free medium as a sterility control.
Incubation and Scoring of MIC: All cultures were incubated without shaking at the temperature used during subculture. Incubation times were 48 hr for Candida spp., S. cerevisiae, A. fumigatus, and Mucor spp; 72 hr for C. neoformans; and 7 days for Microsporum and Trichophyton spp. […]

SMILES | significant inhibition of anti-CD3 response ([1]; 1.14 μM) | suppression of anti-CD3 response ([1]; 5.72 μM, p=0.02) [%] | significant inhibition of PHA response ([2]; 1.14 μM) | suppression of PHA response ([2]; 5.72 μM, p=0.026) [%] | effect on cell proliferation in the absence of mitogens ([3H]-thymidine incorporation) [3] | antifungal activity (overall range) [4] [g/mL] | MIC range (Mucor spp.) [µg/mL]
C/C=C1\NC(=O)[C@H](Cc2ccccc2)NC(=O)[C@H](CCCN=C(N)N)NC(=O)[C@@H](CCN)NC(=O)[C@H](CCN)NC(=O)[C@@H](CO)NC(=O)[C@@H](NC(=O)C[C@H](O)CCCCCCCCC)COC(=O)[C@H]([C@H](O)CCl)NC(=O)[C@H]([C@H](O)C(=O)O)NC1=O [SR-E, Syringomycin-E] (X1-S[dS][Dab][dDab]RF[Dhb][Asp(3S-OH)][Thr(4-Cl)]; ester 1-C) | not | 30 | not | 25 | no effect | – | –
C/C=C1\NC(=O)C(C(C)O)NC(=O)C(CCCN)NC(=O)C(CCO)NC(=O)CNC(=O)C(CCN)NC(=O)C(NC(=O)CC(O)CCCCCCCCCCC)COC(=O)C(C(O)CCl)NC(=O)C(C(O)C(=O)O)NC1=O (stereo not shown) [ST-B, Syringotoxin B] (X2-S[Dab]G[hSer][Orn]T[Dhb][ξAsp(3ξ-OH)][X3]; ester 1-C; configuration not given here) | – | – | – | – | – | 0.8 to 200 | 6.25 to 100
